Results from patent EP0966972B1, “Topical composition containing silicon gum” (Dow Corning France S.A., priority 1998, dated 1999).

Assay: Substantivity of silicone gum formulation on skin (FT-IR/ATR)
Assay type: in vivo, human
Details: 10 seconds after spraying
Experimental: The forearms of volunteers were cleaned and then sprayed in several areas with the formulation of Example 4. […] A FT-IR/ATR cell was used to take an IR spectrum at each area sprayed. […] An IR of the cleansed forearm skin was used as a control blank. The percentage of silicone remaining on the skin was calculated by comparing the height of the specific silicon peak height (1255 cm^-1)/ specific skin peak height (1538 cm^-1) in the blank test.

Compound: C[Si](C)(C)O[Si](C)(C)C [HMDS, hexamethyldisiloxane]
- detectability on the skin: not detectable
